# Measurements: patent US9452980B2, “Substituted benzamides” (Hoffmann-La Roche Inc., priority 2009, dated 2016)
# Where a name gives a salt, the structure may show the parent alone. Read-outs that look alike come from different tables or passages of the source.
# Experiments:
# rat TAAR1 = rat TAAR1 (Rattus norvegicus (Rat), UniProt Q923Y9); assay: Radioligand binding assay on rat TAAR1; conditions: read-out: Ki (μM) rat
# Experimental: (§1) For the construction of expression plasmids the coding sequences of human, rat and mouse TAAR1 were amplified from genomic DNA essentially as described by Lindemann et al.. The Expand High Fidelity PCR System (Roche Diagnostics) was used with 1.5 mM Mg^2+ and purified PCR products were cloned into pCR2.1-TOPO cloning vector (Invitrogen) following the instructions of the manufacturer. PCR products were subcloned into the pIRESneo2 vector (BD Clontech, Palo Alto, Calif.), and expression vectors were sequence verified before introduction in cell lines.
# (§2) HEK293 cells (ATCC #CRL-1573) were cultured essentially as described by Lindemann et al. (2005). For the generation of stably transfected cell lines HEK293 cells were transfected with the pIRESneo2 expression plasmids containing the TAAR coding sequences (described above) with Lipofectamine 2000 (Invitrogen) according to the instructions of the manufacturer, and 24 hrs post transfection the culture medium was supplemented with 1 mg/ml G418 (Sigma, Buchs, Switzerland). After a culture period of about 10 d clones were isolated, expanded and tested for responsiveness to trace amines (all compounds purchased from Sigma) with the cAMP Biotrak Enzyme immunoassay (EIA) System (Amersham) following the non-acetylation EIA procedure provided by the manufacturer.
# Radioligand Binding Assay on Rat TAAR1
# (§3) Membrane Preparation and Radioligand Binding.
# (§4) HEK-293 cells stably expressing rat TAAR1 were maintained at 37° C. and 5% CO2 in DMEM high glucose medium, containing fetal calf serum (10%, heat inactivated for 30 min at 56° C.), penicillin/streptomycin (1%), and 375 μg/ml geneticin (Gibco). Cells were released from culture flasks using trypsin/EDTA, harvested, washed twice with ice-cold PBS (without Ca^2+ and Mg^2+), pelleted at 1,000 rpm for 5 min at 4° C., frozen and stored at −80° C. Frozen pellets were suspended in 20 ml HEPES-NaOH (20 mM, pH 7.4) containing 10 mM EDTA and homogenized with a Polytron (PT 6000, Kinematica) at 14,000 rpm for 20 s. The homogenate was centrifuged at 48,000×g for 30 min at 4° C. Subsequently, the supernatant was removed and discarded, and the pellet resuspended in 20 ml HEPES-NaOH (20 mM, pH 7.4) containing 0.1 mM EDTA using the Polytron (20 s at 14,000 rpm). This procedure was repeated and the final pellet resuspended in HEPES-NaOH containing 0.1 mM EDTA and homogenized using the Polytron. Typically, aliquots of 2 ml membrane portions were stored at −80° C. With each new membrane batch the dissociation constant (Kd) was determined via a saturation curve. […] Nonspecific binding was defined as the amount of ^3[H]—(S)-4-[(ethyl-phenyl-amino)-methyl]-4,5-dihydro-oxazol-2-ylamine bound in the presence of 10 μM unlabeled ligand. All compounds were tested at a broad range of concentrations (10 pM to 10 μM) in duplicates. […] The 96 deep well plates were incubated for 1 hr at 4° C. Incubations were terminated by rapid filtration through Unifilter-96 plates (Packard Instrument Company) and glass filters GF/C (Perkin Elmer) presoaked for 1 hr in polyethylenimine (0.3%) and washed 3 times with 1 ml of cold binding buffer. After addition of 45 μl of Microscint 40 (PerkinElmer) the Unifilter-96 plate was sealed and after 1 hr the ratioactivity counted using a TopCount Microplate Scintillation Counter (Packard Instrument Company).
# mouse TAAR1 = mouse TAAR1 (Mus musculus (Mouse), UniProt Q923Y8); assay: Radioligand binding assay on mouse TAAR1; conditions: mouse TAAR1, HEK-293 membranes, first value of cell mouse/rat; read-out: Ki (μM) mouse
# Sequence of mouse TAAR1 (Q923Y8 whole entry): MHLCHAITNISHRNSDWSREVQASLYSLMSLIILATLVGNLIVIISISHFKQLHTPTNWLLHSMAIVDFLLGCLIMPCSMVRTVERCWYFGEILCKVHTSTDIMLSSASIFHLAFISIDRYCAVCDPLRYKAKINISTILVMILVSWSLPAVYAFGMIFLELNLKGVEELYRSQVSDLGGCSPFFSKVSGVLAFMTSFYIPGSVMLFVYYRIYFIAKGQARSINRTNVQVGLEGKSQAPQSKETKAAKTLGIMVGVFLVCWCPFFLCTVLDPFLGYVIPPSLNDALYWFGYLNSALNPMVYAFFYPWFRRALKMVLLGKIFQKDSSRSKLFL
# Experimental: as §1, §2
# Radioligand Binding Assay on Mouse TAAR1
# as §3
# as §4, with “expressing mouse” for “expressing rat”
# [1] = rat TAAR1, HEK-293 membranes, second value of cell mouse/rat
# Sequence of rat TAAR1 (Q923Y9 whole entry): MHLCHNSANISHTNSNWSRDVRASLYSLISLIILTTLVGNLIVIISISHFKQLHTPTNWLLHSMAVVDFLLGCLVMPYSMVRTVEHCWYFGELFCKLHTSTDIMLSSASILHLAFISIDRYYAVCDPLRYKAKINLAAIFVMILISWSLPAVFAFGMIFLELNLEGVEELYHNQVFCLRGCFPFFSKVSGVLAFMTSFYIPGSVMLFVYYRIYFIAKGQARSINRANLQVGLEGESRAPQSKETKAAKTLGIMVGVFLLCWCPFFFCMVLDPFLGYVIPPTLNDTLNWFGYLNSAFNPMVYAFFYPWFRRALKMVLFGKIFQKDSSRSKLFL
SMILES,Ki (rat TAAR1; [1]),Ki (mouse TAAR1),further results
"O=C(Nc1ccc(C2CCN(c3ccccc3)C2)cc1)c1ccc(Cl)cc1 (racemic) [Example 36, (RS)-4-Chloro-N-[4-(1-phenyl-pyrrolidin-3-yl)-phenyl]-benzamide]",0.324 µM,–,–
"COc1ccc(C(=O)Nc2ccc(C3CCNC3)cc2)cc1 (racemic) [Example 183, (RS)-4-Methoxy-N-(4-(pyrrolidin-3-yl)phenyl)benzamide hydrochloride]",–,0.0526 µM,–
"O=C(NCc1ccc([C@H]2CNCCO2)cc1)c1ccc(C(F)(F)F)nc1 [Example 320, (S)—N-(4-(Morpholin-2-yl)benzyl)-6-(trifluoromethyl)nicotinamide hydrochloride]",–,–,Ki (rat TAAR1): 0.0249 µM
"O=C(Nc1ccc(C2CCNC2)cc1)N1CCOCC1 (racemic) [Example 21, (RS)-Morpholine-4-carboxylic acid (4-pyrrolidin-3-yl-phenyl)-amide hydrochloride]",0.359 µM,–,–
"O=C(Nc1ccc(C2CCNC2)cn1)c1ccc(Cl)cc1 (racemic) [Example 181, (RS)-4-Chloro-N-(5-(pyrrolidin-3-yl)pyridin-2-yl)benzamide hydrochloride]",–,0.0663 µM,–
"CC(C(=O)Nc1ccc(C2CCNC2)cc1)c1ccccc1 (racemic) [Example 25, (RS)-2-Phenyl-N—((RS)-4-pyrrolidin-3-yl-phenyl)-propionamide]",–,0.32 µM,–
"CN(C(=O)Nc1ccc(C2CCNC2)cc1)c1ccccc1 (racemic) [Example 14, (RS)-1-Methyl-1-phenyl-3-(4-pyrrolidin-3-yl-phenyl)-urea]",0.645 µM,–,–
"O=C(Nc1ccc(C2CNCCO2)cc1)c1ccc(Cl)c(Cl)c1 (racemic) [Example 147, (RS)-3,4-Dichloro-N-(4-morpholin-2-yl-phenyl)-benzamide hydrochloride]",–,0.001 µM,–
"C[C@H](C(=O)Nc1ccc(C2CCNC2)cc1)c1ccccc1 (mixture of isomers) [Example 30, (S)-2-Phenyl-N—((RS)-4-pyrrolidin-3-yl-phenyl)-propionamide]",–,0.053 µM,–
"O=C(NCc1ccccc1)Nc1ccc(C2CCNC2)cc1 (racemic) [Example 9, (RS)-1-Benzyl-3-(4-pyrrolidin-3-yl-phenyl)-urea hydrochloride]",1.11 µM,–,–
"O=C(Nc1ccc(C2CNCCO2)cc1)C1CCN(c2ccncn2)CC1 (racemic) [Example 287, (RS)—N-(4-(Morpholin-2-yl)phenyl)-1-(pyrimidin-4-yl)piperidine-4-carboxamide dihydrochloride]",0.379 µM,–,–
"O=C(Nc1ccc(C2CCCNC2)cn1)c1ccc(Cl)cc1 (racemic) [Example 187, (RS)-4-Chloro-N-(5-(piperidin-3-yl)pyridin-2-yl)benzamide hydrochloride]",0.0123 µM,–,–
"O=C(Nc1ccc(C2CNCCO2)cc1)c1ccc(Cl)cc1 (racemic) [Example 71, (RS)-4-Chloro-N-(4-morpholin-2-yl-phenyl)-benzamide hydrochloride]",0.0121 µM,–,–
"COc1cccc(C(C)C(=O)Nc2ccc(C3CCNC3)cc2)c1 (racemic) [Example 67, (RS)-2-(3-Methoxy-phenyl)-N—((RS)-4-pyrrolidin-3-yl-phenyl)-propionamide]",–,0.499 µM,–
"CC1(c2ccc(NC(=O)c3ccccc3)cc2)CCNC1 (racemic) [Example 41, (RS)—N-[4-(3-Methyl-pyrrolidin-3-yl)-phenyl]-benzamide]",2.98 µM,–,–
"CN1CCOC(c2ccc(NC(=O)c3ccc(Cl)cc3)cc2)C1 (racemic) [Example 80, (RS)-4-Chloro-N-[4-(4-methyl-morpholin-2-yl)-phenyl]-benzamide]",–,0.0035 µM,–
"O=C(Nc1ccc(C2CCNC2)cc1)NC1CCCCC1 (racemic) [Example 10, (RS)-1-Cyclohexyl-3-(4-pyrrolidin-3-yl-phenyl)-urea hydrochloride]",0.309 µM,–,–
"O=C(Nc1ccc(C2CNCCO2)cc1)c1ccc(Cl)cn1 (racemic) [Example 148, (RS)-5-Chloro-pyridine-2-carboxylic acid (4-morpholin-2-yl-phenyl)-amide hydrochloride]",–,0.0393 µM,–

# Second part, led by results:
Ki (rat TAAR1; [1]),Ki (mouse TAAR1),SMILES,further results
0.0007 µM,–,"O=C(Nc1ccc(C2CCNC2)cc1)OCCc1ccc(OC(F)(F)F)cc1 (racemic) [Example 125, (RS)-(4-Pyrrolidin-3-yl-phenyl)-carbamic acid 2-(4-trifluoromethoxy-phenyl)-ethyl ester]",–
0.0226 µM,–,"O=C(NCc1ccc([C@H]2CNCCO2)cc1)c1ccc(Cl)cc1 [Example 317, (S)-4-Chloro-N-(4-(morpholin-2-yl)benzyl)benzamide hydrochloride]",–
–,0.0006 µM,"CCN1CCC(c2ccc(NC(=O)c3ccc(Cl)cc3)cc2)C1 (racemic) [Example 33, (RS)-4-Chloro-N-[4-(1-ethyl-pyrrolidin-3-yl)-phenyl]-benzamide]",–
0.0677 µM,–,"Cc1cnc(C(=O)Nc2ccc([C@@H]3CCCNC3)cc2)cn1 [Example 247, (S)-5-Methyl-N-(4-(piperidin-3-yl)phenyl)pyrazine-2-carboxamide hydrochloride]",–
–,0.434 µM,"O=C(Nc1ccc(C2CCNC2)cc1)N1CCCCC1 (racemic) [Example 28, (RS)-Piperidine-1-carboxylic acid (4-pyrrolidin-3-yl-phenyl)-amide]",–
–,0.153 µM,"O=C(Nc1ccc(C2CCCNC2)cc1)c1ccccc1 (racemic) [Example 184, (RS)—N-(4-(piperidin-3-yl)phenyl)benzamide hydrochloride]",–
0.29 µM,–,"O=C(Cc1ccccc1)Nc1ccc(C2CCNC2)cc1 (racemic) [Example 12, (RS)-2-Phenyl-N-(4-pyrrolidin-3-yl-phenyl)-acetamide hydrochloride]",–
–,0.102 µM,"C[C@@H](C(=O)Nc1ccc(C2CCNC2)cc1)c1ccccc1 (mixture of isomers) [Example 29, (R)-2-Phenyl-N—((RS)-4-pyrrolidin-3-yl-phenyl)-propionamide]",–
0.0206 µM,–,"O=C(NCc1ccc([C@H]2CNCCO2)cc1)c1ccc(Cl)nc1 [Example 319, (S)-6-Chloro-N-(4-(morpholin-2-yl)benzyl)nicotinamide hydrochloride]",–
0.0985 µM,–,"COCc1ccc(C(=O)Nc2ccc(C3CCNC3)cc2)cc1 (racemic) [Example 51, (RS)-4-Methoxymethyl-N-(4-pyrrolidin-3-yl-phenyl)-benzamide hydrochloride]",–
–,0.0227 µM,"O=C(Nc1ccc(COC2CCNC2)cc1)c1ccc(Cl)cc1 (racemic) [Example 145, (RS)-4-Chloro-N-[4-(pyrrolidin-3-yloxymethyl)-phenyl]-benzamide hydrochloride]",–
